Results on five molecules are retold here after patent publication US4256731A, “Oral Compositions” (priority 1979, dated 1981).

The experiment in a line: in vitro stain assay: inhibition of alexidine dihydrochloride mediated stain on saliva-coated hydroxylapatite, 5% tannic acid as staining agent. The following applies: tested in triplicate, pH and acid:alexidine mole ratio as listed per formulation. The method, then: Methods: The substrate for the in vitro stain assay was a saliva-coated hydroxylapatite and the staining agent was 5% tannic acid. Each formulation was tested in triplicate.

With `Nc1ccc(C(=O)O)cc1` [p-Aminobenzoic Acid], the “% Inhibition of Alexidine . 2HCl Mediated Stain” value (from here on “% Inhibition”) stood at 22%. Take `O=C(O)/C=C/C(=O)O` [Fumaric Acid]: the “% Inhibition” value amounted to 44%. For the molecule `N[C@@H](CC(=O)O)C(=O)O` [Aspartic Acid], the “% Inhibition” value was found to be 34%. For the molecule `O=C(O)CC(O)(CC(=O)O)C(=O)O` [Citric Acid], the “% Inhibition” value turned out to be 32%. `N[C@@H](CCC(=O)O)C(=O)O` [Glutamic Acid]: the “% Inhibition” value stood at 40%.
